# Patent US20250129023A1, “[…]” (Reunion Neuroscience, Inc., priority 2020, published 2025)
# Structures can show the parent of a compound that is named as a salt.
# Key:
# [1] = Pharmacokinetics and subjective effects in human volunteers; format: in vivo; settings: standardized questionnaires
# Experimental: The compound from example 6 (N,N diisopropyltryptamine-4-glutarate) is administered to human volunteers by subcutaneous injection of a sterile solution (1 mg/ml) at a dosage of 0.1-0.6 mg/kg. Blood samples are taken at 5, 15, 30, 45, 60, 120, 240 and 480 min and 24 h. Samples are analyzed by LCMS for drug and prodrug. Subjective effects are measured using standardized questionnaires.
# The compound from example 2 (4-hemisuccinate of 4-OH-DiPT) is administered to human volunteers by oral ingestion of a tablet containing 50 mg of the prodrug. Blood samples are taken at 5, 15, 30, 45, 60, 120, 240 and 480 min and 24 h. Samples are analyzed by LCMS for drug and prodrug. Subjective effects are measured using standardized questionnaires.
# rats = assay: Head Twitch Response (HTR) / Wet Dog Shakes by visual observation; format: in vivo; settings: after injection of the compound from example 9, highest intensity at the Tmax of the PK profile
# Experimental: In some cases, Head Twitch Response (HTR) or Wet Dog Shakes (WDS) were recorded by visual observation and counting of the relevant muscle twitches.
# [2] = test system: human patient suffering depression; assay: Use in treatment of a human patient suffering depression; format: in vivo; settings: i.m. or s.c. injection (ca. 25 mg) or oral (ca. 50-200 mg)
# Experimental: The compound of example 6 (N,N diisopropyltryptamine-4-glutarate) is administered by i.m. or s.c. injection (ca. 25 mg; 0.4-0.5 mg/kg) to a human patient suffering depression, or by oral administration (ca. 50-200 mg; 0.8-3.2 mg/kg) with tablets. In another example of use, the compound of example 6 (4-hemiglutarate of 4-OH-DiPT) is similarly administered. Prior to the dosing session, the patient is qualified for the experience by measurement of depression scores, screened for exclusions (e.g. history of psychoses, unfavorable heart condition, pregnancy) and finally, the patient is encouraged to formulate an intent for the dosing session. Dosing is performed in a quiet clinic setting with the patient resting comfortably in an inclined, but unrestrained, position to avoid falls. The patients' eyes are covered, and music is applied. The drug is administered. After 4 h, the patient reports no longer feeling the effects of the drug and is asked to sit up while under supervision. Feeling normal, the patient is allowed to stand (supervised) and feeling in control, is allowed to move around. One hour later, the patient is discharged. Later by 24 h, the patient returns to the clinic to meet with a psychotherapist to recount the session. The patient records a depression score via questionnaire and is again discharged. […]
# Solubility in water = format: physicochemical; settings: HCl salt solid
# Experimental: The structure was confirmed by NMR. Purity was determined by HPLC (>97%). The solid was resuspended in […] HCl-dioxane to form the HCl salt which was filtered, washed with ether and dried. Yield (>95%, purity >95%; DSC endotherm 174C). The solid could be dissolved in water up to 50 mg/ml and lyophilized to form a white “cake”.
# [3] = Prodrug hydrolysis in pooled mixed gender human plasma at 37° C; format: in vitro ADME; settings: 1.0 ug/mL
# Experimental: (§1) Pooled mixed gender human plasma (2 ml), mouse plasma, rat plasma and dog plasma were equilibrated at 37° C. The compound of example 9 was added so as to achieve a concentration of 1.0 ug/mL. Aliquots (50 uL) of the mixture were withdrawn at timed intervals (0, 0.004, 0.5, 1, 2 and 4 hours) and quenched with 200 uL of methanol/acetonitrile (1:1). The samples were vortexed and stored at −80° C. until analysis. Assays were done in triplicate. Control samples were done in phosphate buffered saline (PBS, pH 7.4) and simulated gastric fluid (SGF, pH 2). Analysis of samples as performed by HPLC-MS to determine the amounts of prodrug and drug in each sample tested. Table 1 provides the mean concentrations of prodrug remaining at different time points of the experiment.
# [4] = Prodrug hydrolysis in mouse plasma at 37° C; format: in vitro ADME; settings: 1.0 ug/mL
# Experimental: as §1
# [5] = Prodrug hydrolysis in rat plasma at 37° C; format: in vitro ADME; settings: 1.0 ug/mL
# Experimental: as §1
# [6] = Pharmacokinetics in rats (i.v. and s.c. injection, LCMS of drug and prodrug); format: in vivo; settings: rodent, 1.4-2 mg/kg
# Experimental: The compound from example 9 was administered to rats by injection (intravenous and subcutaneous) with a sterile solution (2 mg/ml) at a rate of 1.4-2 mg/kg. Blood samples were taken at 15, 30, 45, 60, 120, 240 min and 360 min and analyzed by LCMS for drug and prodrug. PK profile for the prodrug and active species were obtained and relative bioavailability was determined for each of the routes of administration.
# Pharmacokinetics of 1.34 mg/ml 4-HO-DiPT HCl administered by intravenous or subcutaneous injection were performed in parallel under identical conditions as above. […] Immediately obvious is the increased variability with the active species when administered s.c. and intravenous administrations.
# [7] = Control hydrolysis in phosphate buffered saline (PBS); format: physicochemical; settings: PBS (pH 7)
# Experimental: as §1
# [8] = Control hydrolysis in simulated gastric fluid (SGF, pH 2); format: physicochemical
# Experimental: as §1
# [9] = Prodrug hydrolysis in dog plasma at 37° C; format: in vitro ADME; settings: 1.0 ug/mL
# Experimental: as §1
smiles,measurement,setting,value
"CC(C)N(CCc1c[nH]c2cccc(OC(=O)CCC(=O)O)c12)C(C)C [Example 2, 4-hemisuccinate of 4-hydroxy-diisopropyltryptamine (4-OH-DiPT)]",Subjective effects (intensity of psychoactivity),[1]; oral tablet 50 mg,correlates with blood levels
"CC(C)N(CCc1c[nH]c2cccc(O)c12)C(C)C [Example 4-HO-DIPT, 4-hydroxy-N,N-diisopropyltryptamine]",Intensity of the HTR versus plasma concentration,rats,proportional to the plasma concentration
"CC(C)N(CCc1c[nH]c2cccc(OC(=O)CCCC(=O)O)c12)C(C)C [Example 6, N,N diisopropyltryptamine-4-glutarate]",Subjective effects (intensity of psychoactivity),"[1]; subcutaneous injection, 0.1-0.6 mg/kg",correlates with blood levels
same,Time after which the patient reports no longer feeling the effects of the drug,[2],4 h
same,Solubility in water,Solubility in water,up to 50 mg/ml
"CC(C)N(CCc1c[nH]c2cccc(OC(=O)CCCC(=O)O)c12)C(C)C [Example 9, HCl salt of N,N diisopropyltryptamine-4-glutarate]",Percentage of remaining prodrug,[3]; time 0 h,100%
same,Percentage of remaining prodrug,[3]; time 0.004 h,100%
same,Percentage of remaining prodrug,[3]; time 0.5 h,3.0%
same,Percentage of remaining prodrug,[3]; time 1 h,0.23%
same,Percentage of remaining prodrug,[3]; time 2 h,0%
same,Percentage of remaining prodrug,[3]; time 4 h,0%
same,Percentage of remaining prodrug,[4]; time 0 h,100%
same,Percentage of remaining prodrug,[4]; time 0.004 h,0%
same,Percentage of remaining prodrug,[4]; time 0.5 h,0%
same,Percentage of remaining prodrug,[4]; time 1 h,0%
same,Percentage of remaining prodrug,[4]; time 2 h,0%
same,Percentage of remaining prodrug,[4]; time 4 h,0%
same,Percentage of remaining prodrug,[5]; time 0 h,100%
same,Percentage of remaining prodrug,[5]; time 0.004 h,0%
same,Percentage of remaining prodrug,[5]; time 0.5 h,0%
same,Percentage of remaining prodrug,[5]; time 1 h,0%
same,Percentage of remaining prodrug,[5]; time 2 h,0%
same,Percentage of remaining prodrug,[5]; time 4 h,0%
same,Prodrug in blood samples after injection,[6],prodrug was not observed
same,Percentage of remaining prodrug,[7]; time 0 h,100%
same,Percentage of remaining prodrug,[7]; time 4 h,93%
same,Percentage of remaining prodrug,[8]; time 0 h,100%
same,Percentage of remaining prodrug,[8]; time 0.004 h,100%
same,Percentage of remaining prodrug,[8]; time 0.5 h,100%
same,Percentage of remaining prodrug,[8]; time 1 h,100%
same,Percentage of remaining prodrug,[8]; time 4 h,101%
same,Percentage of remaining prodrug,[9]; time 0 h,100%
same,Percentage of remaining prodrug,[9]; time 0.004 h,100%
same,Percentage of remaining prodrug,[9]; time 0.5 h,87%
same,Percentage of remaining prodrug,[9]; time 1 h,79%
same,Percentage of remaining prodrug,[9]; time 2 h,64%
same,Percentage of remaining prodrug,[9]; time 4 h,39%
